Like-named read-outs stand apart in the source and are kept apart here.
Columns and labels:
Escherichia coli TEM-30 = experiment: MIC, characterised β-lactamase producing strain (Example 5, Tables 5-7); type: cell-based; details: Table 6, LK-157 at constant 4 μg/mL in combination
C. freundii SHV-5 [1] = experiment: Synergy MIC, inhibitor at 4 μg/mL (Example 4); type: cell-based; details: SHV-5, class A, inhibitor constant 4 μg/mL
E. cloacae SHV-12 = experiment: Synergy MIC, inhibitor at 4 μg/mL (Example 3); type: cell-based; details: β-lactamase SHV-12 (Table 3 r11), inhibitor constant 4 μg/mL
Procedure: (§1) Stock solutions of the test compounds and control antibiotics were prepared in distilled water according to the NCCLS guidelines [Methods for dilution antimicrobial tests for bacteria that grow aerobically. NCCLS document M7-A5; 2000; vol. 19. National Committee for Clinical Laboratory Standards, Villanova, Pa.]. All drug weights were corrected for salt forms and refer to the pure drug substance.
(§2) All tested strains and Clinical isolates were either purchased from the American Type Culture Collection (ATCC), or from the in-house company culture collection.
(§3) Stock cultures were prepared from broth cultures grown at 35° C. for 18-22 h without agitation and subsequent addition of 5% DMSO (v/v, final concentration) as cryoprotectant and stored frozen in liquid nitrogen. Mueller-Hinton II broth (MHBII) (BBL Cockeysville, Md.) was used for the testing procedure.
(§4) The in vitro activities of the antibiotics were determined by the broth microdilution method and agar dilution technique as recommended by CLSI guidelines. The MIC experiments were performed in duplicate in 96-well microtiter plates using MHB. Serial twofold dilutions of each antibiotic either alone or in combination with a constant amount (4 μg/mL) of a β-lactamase inhibitor were prepared in MHBII broth. A sterile pipette tip was used to mix the contents of each well (one tip was used going from the low to the high concentration in the same column). The bacterial suspension with final inoculum 10^5 CFU/mL was transferred to the test medium containing the antibacterial substances by a multipoint inoculator (Dynatech, Chantilly, Va., USA). The plates were then incubated at 35° C. for 24 h.
(§5) Representative compound of Formula (I) was evaluated against the serine-based Class A β-lactamases including TEM-type, SHV-type extended spectrum β-lactamases (ESBL) and various non-ESBL enzymes of enterobacteriaceae as well as BRO-type enzymes of Moraxella catarrhalis and penicillinases of Staphylococcus aureus.

C. freundii SHV-5 [2] = experiment: Synergy MIC, inhibitor at 4 μg/mL (Example 3); type: cell-based; details: β-lactamase SHV-5 (Table 3 r10), inhibitor constant 4 μg/mL
Procedure: as §1, §2, §3, §4, §5

E. coli ESBL = experiment: Synergy MIC, inhibitor at 4 μg/mL (Example 3); type: cell-based; details: inhibitor constant 4 μg/mL
Procedure: as §1, §2, §3, §4, §5

C. freundii ESBL = experiment: Synergy MIC, inhibitor at 4 μg/mL (Example 3); type: cell-based; details: ESBL (Table 3 r25), inhibitor constant 4 μg/mL
Procedure: as §1, §2, §3, §4, §5

E. coli SHV-3 = experiment: Synergy MIC, inhibitor at 4 μg/mL (Example 3); type: cell-based; details: β-lactamase SHV-3 (Table 3 r9), inhibitor constant 4 μg/mL
Procedure: as §1, §2, §3, §4, §5

K. oxytoca ESBL = experiment: Synergy MIC, inhibitor at 4 μg/mL (Example 3); type: cell-based; details: ESBL (Table 3 r26), inhibitor constant 4 μg/mL
Procedure: as §1, §2, §3, §4, §5

K. pneumoniae SHV = experiment: Synergy MIC, inhibitor at 4 μg/mL (Example 3); type: cell-based; details: β-lactamase SHV, inhibitor constant 4 μg/mL
Procedure: as §1, §2, §3, §4, §5

S. aureus PC = experiment: Synergy MIC, inhibitor at 4 μg/mL (Example 3); type: cell-based, Staphylococcus aureus; details: S. aureus, β-lactamase PC, inhibitor constant 4 μg/mL
Procedure: as §1, §2, §3, §4, §5

E. coli TEM-3 = type: cell-based; details: β-lactamase TEM-3 (Table 3 r16), inhibitor constant 4 μg/mL
Procedure: as §1, §2, §3, §4, §5

E. coli TEM-1 = type: cell-based; details: inhibitor constant 4 μg/mL
Procedure: as §1, §2, §3, §4, §5

M. catarrhalis BRO-1 = experiment: Synergy MIC, inhibitor at 4 μg/mL (Example 3); type: cell-based, Moraxella catarrhalis; details: M. catarrhalis, β-lactamase BRO-1 (Table 3 r17); inhibitor constant 4 μg/mL
Procedure: as §1, §2, §3, §4, §5

M. catarrhalis BRO-2 = experiment: Synergy MIC, inhibitor at 4 μg/mL (Example 3); type: cell-based, Moraxella catarrhalis; details: β-lactamase BRO-2 (Table 3 r18), inhibitor constant 4 μg/mL
Procedure: as §1, §2, §3, §4, §5

| Structure (SMILES) | MIC (Escherichia coli TEM-30) | MIC (C. freundii SHV-5 [1]) | MIC (E. cloacae SHV-12) | MIC (C. freundii SHV-5 [2]) | MIC (E. coli ESBL; first listed (Table 3 r21)) | MIC (E. coli ESBL; fourth listed (Table 3 r24)) | MIC (E. coli ESBL; second listed (Table 3 r22)) | MIC (E. coli ESBL; third listed (Table 3 r23)) | MIC (C. freundii ESBL) | MIC (E. coli SHV-3) | MIC (K. oxytoca ESBL) | MIC (K. pneumoniae SHV; first listed (Table 3 r12)) | MIC (K. pneumoniae SHV; second listed (Table 3 r13)) | MIC (S. aureus PC; first listed (Table 3 r19)) | MIC (S. aureus PC; second listed (Table 3 r20)) | MIC (E. coli TEM-3) | MIC (E. coli TEM-1; β-lactamase TEM-1, first listed (Table 3 r14)) | MIC (E. coli TEM-1; β-lactamase TEM-1, second listed (Table 3 r15)) | MIC (M. catarrhalis BRO-1) | MIC (M. catarrhalis BRO-2) |
| --- | --- | --- | --- | --- | --- | --- | --- | --- | --- | --- | --- | --- | --- | --- | --- | --- | --- | --- | --- | --- |
| CO/N=C(\C(=O)N[C@@H]1C(=O)N2C(C(=O)O)=C(COC(C)=O)CS[C@H]12)c1csc(N)n1 [cefotaxime] | 0.031 µg/mL | 25.6 µg/mL | – | – | – | – | – | – | – | – | – | – | – | – | – | – | – | – | – | – |
| CC(C)(O/N=C(\C(=O)N[C@@H]1C(=O)N2C(C(=O)[O-])=C(C[n+]3ccccc3)CS[C@H]12)c1csc(N)n1)C(=O)O [ceftazidime] | – | – | > 25.6 µg/mL | > 25.6 µg/mL | 1.6 µg/mL | > 25.6 µg/mL | 0.4 µg/mL | 0.2 µg/mL | > 25.6 µg/mL | 1.6 µg/mL | 0.4 µg/mL | > 25.6 µg/mL | 12.8 µg/mL | 12.8 µg/mL | 25.6 µg/mL | > 25.6 µg/mL | 0.2 µg/mL | 3.2 µg/mL | 0.2 µg/mL | 0.05 µg/mL |

Source: patent US20100029604A1, “ANTIBACTERIAL COMBINATION AND ITS USE” (priority 2007, published 2010)
